Consider six compounds from article PMC7958136, “ANT1 Activation and Inhibition Patterns Support the Fatty Acid Cycling Mechanism for Proton Transport” (International Journal of Molecular Sciences, 2021).

The EC50 is the concentration giving half of the maximal effect.

The target in one assay is T1, recombinant murine ANT1 (mANT1; adenine nucleotide translocase 1) (Mus musculus, UniProt P48962).
T1 construct: gene Slc25a4
T1 sequence (P48962 2-298): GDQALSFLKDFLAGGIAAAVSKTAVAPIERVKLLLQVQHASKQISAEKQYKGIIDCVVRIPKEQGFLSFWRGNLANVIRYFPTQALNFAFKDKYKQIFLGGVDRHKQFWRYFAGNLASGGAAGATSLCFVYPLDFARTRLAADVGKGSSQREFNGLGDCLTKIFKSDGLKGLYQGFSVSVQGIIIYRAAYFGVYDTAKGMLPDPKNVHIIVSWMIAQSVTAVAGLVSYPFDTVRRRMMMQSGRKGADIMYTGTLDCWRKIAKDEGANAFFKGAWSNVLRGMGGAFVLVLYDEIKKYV
Description: inhibition of fatty-acid-activated proton conductance, planar lipid bilayer with reconstituted ANT1.
Conditions: not given
In kind it is biochemical.
On to `CO[C@H](C/C=C\C=C\CC/C=C/C[C@H](C)/C=C/C(=C\C(=O)O)CC(=O)O)/C(C)=C\C=C(/C)C(=O)O` [bongkrekic acid], for which the EC50 is 32.3 ± 11.4 µM.

The same assay, now with this note: read-out: EC50.
Regarding `Nc1ncnc2c1ncn2[C@@H]1O[C@H](COP(=O)(O)OP(=O)(O)O)[C@@H](O)[C@H]1O` [ADP], the EC50 turned out to be 1310 ± 537 µM.

`Nc1ncnc2c1ncn2[C@@H]1O[C@H](COP(=O)(O)O)[C@@H](O)[C@H]1O` [AMP]: the concentration for a half-maximal effect (EC50) was 2660 ± 817 µM.

For the compound `Nc1ncnc2c1ncn2[C@@H]1O[C@H](COP(=O)(O)OP(=O)(O)OP(=O)(O)O)[C@@H](O)[C@H]1O` [ATP], the 50% effective concentration (EC50) came to 250 ± 34 µM.

For `Nc1nc2c(ncn2[C@@H]2O[C@H](COP(=O)(O)OP(=O)(O)O)[C@@H](O)[C@H]2O)c(=O)[nH]1` [GDP], the EC50 was 5410 ± 2010 µM.

On to `Nc1nc2c(ncn2[C@@H]2O[C@H](COP(=O)(O)OP(=O)(O)OP(=O)(O)O)[C@@H](O)[C@H]2O)c(=O)[nH]1` [GTP], for which the half-maximal effective concentration (EC50) came to 3320 ± 93 µM.
